Values after ≈ are worked out from the molar mass of the structure shown.
Tests used:
[1] = Estimated rotation rate after light activation; conditions: for estimated rotation rate after light activation: based on known motors with similar core skeletons
C. albicans = experiment: MIC, visible-light-activated MMs and conventional antifungals, C. albicans; format: cell-based, Candida albicans (ATCC 18804); conditions: Candida albicans, read-out: MIC of antifungal agent
Procedure: C. albicans cell suspensions were incubated with increasing concentrations of MMs and irradiated with 405-nm light at 292 mW cm^−2 for 5 min (87.6 J cm^−2). The minimum inhibitory concentration (MIC) was defined as the MM concentration resulting in no visible fungal growth after irradiation with 87.6 J cm^−2 of 405-nm light.
Cell suspensions for susceptibility testing (MMs and conventional antifungals) were prepared per the Clinical & Laboratory Standards Institute (CLSI) guidelines (CLSI, 2017; CLSI, 2008). Before testing, yeasts (C. albicans and S. cerevisiae) were sub-cultured in Sabouraud Dextrose Agar-Emmons Modification (SDAE) plates and grown for 24 h at 30 °C. Five independent colonies from 24-h-old plates were collected and diluted to ~10^4 colony forming units (CFU) per mL in sterile saline (CLSI, 2017). Molds (A. fumigatus and the dermatophytes T. rubrum and M. gypseum) were sub-cultured on SDAE medium and incubated for 7 days at 28 °C. Conidia were recovered by covering the plates with sterile distilled water and scraping the colonies. The suspensions were filtered (8-μm pore size) and diluted in saline to ~10^4 CFU mL^−1 (Santos and Hamdan, 2005).
After a 30-min incubation in the dark, cell suspensions were transferred to small, sterilized glass beakers, which were then placed in a water bath. Each sample was irradiated with 405-nm light at 292 mW cm^−2 for 5 min, corresponding to a light dose of 87.6 J cm^−2, determined using an S415C thermal power sensor (Thorlabs, Newton, MA, USA). During irradiation, the cell suspensions were agitated with a small metal stirrer. A thermocouple probe (model SC-TT-K-30-36-PP; Omega Engineering, Inc., Stanford, CT, USA) was used to monitor the temperature during irradiation. Irradiated cell suspensions were inoculated in 3-(N-morpholino) propanesulfonic acid (MOPS)-buffered Roswell Park Memorial Institute Medium (RPMI) 1640 (pH 7.0). Tubes were incubated at 30 ° C for 48 h (yeasts) and 28 ° C for 7 days (molds). The antifungal or MM concentration resulting in no visible growth was defined as the minimum inhibitory concentration (MIC) (CLSI, 2017; CLSI, 2008). Similarly prepared cell suspensions were used to determine the MIC of conventional antifungals.

E. coli [2] = experiment: MIC, E. coli; format: cell-based, Escherichia coli BW25113; conditions: E. coli, broth microdilution; for MIC: Escherichia coli, read-out: Antibiotic MIC
P. aeruginosa = experiment: MIC, P. aeruginosa; format: cell-based, Pseudomonas aeruginosa
Procedure: (§1) The appropriate volume of an MM stock at 8 mM necessary to achieve a concentration ranging from 0.3125 to 40 μM was pipetted into a 2 mL microcentrifuge tube to which 1 mL of cell suspension prepared as previously described was added. Corresponding negative controls (DMSO only) were prepared in the same way. The mixture was gently mixed by pipetting and incubated in the dark at 30 or 37 ° C, depending on the strain, for 30 min with agitation (220 rpm). Afterward, MM- or DMSO-treated cells were dispensed in one well of a 24-well plate positioned in the center of the light beam (405 nm LED Light, Prizmatix, UHP—F-5-405) placed at the appropriate distance necessary to achieve the desired light intensity of 304 mW cm-2, 146 mW cm2 or 87 mW cm2, as measured with a handheld digital power meter console coupled to an S415C thermal power sensor head (Thorlabs, Newton, MA, USA). The temperature during irradiation was monitored using a thermocouple probe (Model SC-TT-K-30-36-PP; Omega Engineering, Inc., Stanford, CT, USA). Samples were agitated during irradiation. Dark controls were prepared as previously described except that no irradiation was provided.
(§2) For MIC determination, samples treated with a range of concentrations of the different MM, as described above and were irradiated one at a time for 5 min at 146 mW cm^−2 (43.8 J cm^−2), after which irradiated aliquots were collected and inoculated into 1 mL MHB in a 2 mL microcentrifuge tube. Samples were incubated overnight at 30 or 37 ° C, depending on the strain, without agitation. Corresponding non-irradiated samples and negative controls (without bacteria) were also included. The following day, cultures were inspected for growth and the MIC was identified. The experimental procedure used to determine the MIC of visible light-activated MMs is schematically depicted in FIG. 26.

S. aureus = experiment: MIC, S. aureus; format: cell-based, Staphylococcus aureus; conditions: S. aureus, broth microdilution
Procedure: as §1, §2

E. coli [3] = experiment: Checkerboard interaction with antibiotics (MIC, FIC index), E. coli; format: cell-based, Escherichia coli
Procedure: To evaluate synergy between conventional antibiotics and MM in E. coli, the fractional inhibitory concentration (FIC) index (Hall et al., 1983) was determined using a modified checkerboard microtiter test in an 8-by-8 well configuration. Briefly, E. coli cell suspensions were prepared as described for MIC determination with an increasing concentration (0.1-40 μM) of the different MMs, followed by irradiation for 5 min at 146 mW cm^−2. […] The FIC was calculated after dividing the MIC of each antibiotic in combination with different MM by the MIC of the antibiotic alone. The FIC index, obtained by adding both FICs, was interpreted as indicating a synergistic effect if it was ≤0.5, as additive or indifferent if it was >0.5 and ≤2.0, and as antagonistic if it was >2.0 (Hall et al., 1983).

A. baumannii = experiment: MIC, A. baumannii; format: cell-based, Acinetobacter baumannii; conditions: Acinetobacter baumannii, read-out: Antibiotic MIC
Procedure: as §1, §2

C[C@@H]1Cc2ccc3c(NCCN(C)C)cccc3c2C1=C1c2ccccc2Sc2ccccc21 (racemic) [DL-5-901]
estimated rotation rate after light activation [1]: 3 MHz

C[C@@H]1Cc2ccc3c(NCCN)cccc3c2C1=C1c2ccccc2Sc2ccccc21 (racemic) [DL-5-903]
estimated rotation rate after light activation [1]: 3 MHz

Nc1nc(=O)[nH]cc1F [5-Fluorocytosine (5-FC), 5-Fluorocytosine]
MIC (C. albicans): 1 µg/mL

C[C@@H]1CSc2ccc3ccccc3c2/C1=C1\c2ccccc2Sc2cc(NCCN(C)C)ccc21 [ARV-3-202, reference compound]
estimated rotation rate of slow MM [1]: ~ 10^−6 Hz

C[C@@H]1Cc2ccc3c(N(C)CCN(C)C)cccc3c2C1=C1c2ccccc2Sc2ccccc21 (racemic) [DL-5-902]
estimated rotation rate after light activation [1]: 3 MHz

Gentamicin [reference compound]
Antibiotic MIC (E. coli [2]): 1 μg per mL
Antibiotic MIC (P. aeruginosa; P. aeruginosa, broth microdilution): 1 μg per mL
Antibiotic MIC (S. aureus): 2 μg per mL

O=C(O)c1cn(C2CC2)c2cc(N3CCNCC3)c(F)cc2c1=O [Ciprofloxacin, reference compound]
MIC (E. coli [2]): 0.008 µg/mL (≈ 0.0241 µM)

CC1(C)S[C@@H]2[C@H](NC(=O)[C@H](N)c3ccccc3)C(=O)N2[C@H]1C(=O)O [Ampicillin, reference compound]
MIC (E. coli [2]): 0.063 µg/mL (≈ 0.18 µM)

OC(Cn1cncn1)(Cn1cncn1)c1ccc(F)cc1F [Fluconazole (FLC), Fluconazole]
MIC (C. albicans): 0.5 µg/mL

COc1cc2c(c3ccccc13)/C(=C1\c3ccccc3Sc3ccc(NCCN(C)C)cc31)[C@H](C)C2 (racemic) [DL-5-872]
estimated rotation rate after light activation [1]: 3 MHz

COc1cc(Cc2cnc(N)nc2N)cc(OC)c1OC [Trimethoprim, reference compound]
MIC (E. coli [2]): 1 µg/mL (≈ 3.44 µM)
MIC (P. aeruginosa; Pseudomonas aeruginosa, read-out: Antibiotic MIC): 128 µg/mL (≈ 441 µM)

CO[C@@H]1[C@@H](OC(N)=O)[C@@H](O)[C@H](Oc2ccc3c(O)c(NC(=O)c4ccc(O)c(CC=C(C)C)c4)c(=O)oc3c2C)OC1(C)C [Novobiocin]
MIC (E. coli [2]): 64 µg/mL (≈ 104 µM)
potentiation of antibiotic by MM pre-treatment (E. coli [3]; E. coli): up to 64 fold
FIC index with MM (E. coli [3]; E. coli, MM and novobiocin): ≤ 0.5
antibiotic MIC after pre-treatment with MM 1 (E. coli [3]; E. coli, light-activated MM 1): 0.0075 µg/mL
antibiotic MIC after pre-treatment with MM 5 (E. coli [3]; E. coli, light-activated MM 5): 0.0075 µg/mL
antibiotic MIC after pre-treatment with MM 6 (E. coli [3]; E. coli, light-activated MM 6): 0.015 µg/mL
MIC (E. coli [3]; Escherichia coli, 18 h, read-out: antibiotic MIC alone): 0.48 µg/mL

CN(C)[C@@H]1C(O)=C(C(N)=O)C(=O)[C@@]2(O)C(O)=C3C(=O)c4c(O)cccc4[C@@](C)(O)[C@H]3C[C@@H]12 [Tetracycline, reference compound]
MIC (A. baumannii): 8 µg/mL (≈ 18 µM)

Source: US20260355318A1, “MOLECULAR MACHINES FOR TREATMENT OF CANCER, FUNGAL INFECTIONS, OR BACTERIAL INFECTIONS” (priority 2022, published 2026)
